Experimental data as given in ChEMBL document CHEMBL4513141, “CO-ADD screening of NIH (USA) - Clinical Collection” (2021).
Values after ≈ are worked out from the molar mass of the structure shown. Structures can show the parent of a compound that is named as a salt.

Tests used:
Staphylococcus aureus = experiment: microbe, parasite or virus in culture; conditions: ATCC 43300, 18 h, ASSAY_TEST Inhibition of Bacterial Growth, detection method Absorption (OD600), MEDIA CAMHB, plate type 384well, NBS, CORNING #3640
Description: Antibacterial activity against Staphylococcus aureus MRSA ATCC 43300 (CO-ADD:GP_020); MIC in CAMBH media, using NBS plates, by OD(600)

Escherichia coli = experiment: microbe, parasite or virus in culture; conditions: ATCC 25922, 18 h, ASSAY_TEST Inhibition of Bacterial Growth, detection method Absorption (OD600), MEDIA CAMHB, plate type 384well, NBS, CORNING #3640
Description: Antibacterial activity against Escherichia coli ATCC 25922 (CO-ADD:GN_001); MIC in CAMBH media using NBS plates, by OD(600)

HEK293 = experiment: cells; format: functional, Homo sapiens, ATCC CRL1573; conditions: Homo sapiens, ATCC CRL1573, HEK293; ASSAY_TEST Inhibition of Cell Viability; detection method Resazurin; Fluorescence (ex560/em590); MEDIA DMEM with 10% FBS; plate type 384well; TC; CORNING #3712; time 18 hr
Klebsiella pneumoniae = experiment: microbe, parasite or virus in culture; conditions: ATCC 700603, 18 h, ASSAY_TEST Inhibition of Bacterial Growth, detection method Absorption (OD600), MEDIA CAMHB, plate type 384well, NBS, CORNING #3640
Description: Antibacterial activity against Klebsiella pneumoniae MDR ATCC 70063 (CO-ADD:GN_003); MIC in CAMBH media using NBS plates, by OD(600)

Candida albicans = experiment: microbe, parasite or virus in culture; conditions: ATCC 90028, ASSAY_TEST Inhibition of Fungal Growth, detection method Absorption (OD530), plate type 384well, NBS, CORNING #3640
Description: Antifungal activity against Candida albicans ATCC 90028 (CO-ADD:FG_001); MIC in YNB media using NBS plates, by OD630

Pseudomonas aeruginosa = experiment: microbe, parasite or virus in culture; conditions: ATCC 27853, 18 h, ASSAY_TEST Inhibition of Bacterial Growth, detection method Absorption (OD600), MEDIA CAMHB, plate type 384well, NBS, CORNING #3640
Description: Antibacterial activity against Pseudomonas aeruginosa ATCC 27853 (CO-ADD:GN_042); MIC in CAMBH media using NBS plates, by OD(600)

Acinetobacter baumannii = experiment: microbe, parasite or virus in culture; conditions: ATCC 19606, 18 h, ASSAY_TEST Inhibition of Bacterial Growth, detection method Absorption (OD600), MEDIA CAMHB, plate type 384well, NBS, CORNING #3640
Description: Antibacterial activity against Acinetobacter baumannii ATCC 19606 (CO-ADD:GN_034); MIC in CAMBH media using NBS plates, by OD600

Description for Cryptococcus neoformans: Antifungal activity against Cryptococcus neoformans H99 ATCC 208821 (CO-ADD:FG_002); MIC in YNB media using NBS plates, by Resazurin OD(600-570)

SMILES	MIC (Staphylococcus aureus) [µM]	MIC (Escherichia coli) [µM]	CC50 (HEK293) [µM]	MIC (Klebsiella pneumoniae) [µM]	MIC (Candida albicans) [µM]	MIC (Pseudomonas aeruginosa) [µM]	MIC (Acinetobacter baumannii) [µM]	MIC (Cryptococcus neoformans) [µM]
Oc1c(Cl)cc(Cl)c(Cl)c1Cc1c(O)c(Cl)cc(Cl)c1Cl [HEXACHLOROPHENE]	5 (≈ 2.03 µg/mL)	> 10	> 10	> 10	> 10	> 10	> 10	> 10
CC(=O)[C@]1(O)Cc2c(O)c3c(c(O)c2[C@@H](O[C@H]2C[C@H](N)[C@H](O)[C@H](C)O2)C1)C(=O)c1ccccc1C3=O [IDARUBICIN HYDROCHLORIDE]	5	> 10	> 10	> 10	> 10	> 10	> 10	> 10
COC1=C(OC)C(=O)C(CCCCCCCCCCO)=C(C)C1=O [IDEBENONE]	> 10	> 10	> 10	> 10	> 10	> 10	> 10	> 10
CCc1c2c(nc3ccc(OC(=O)N4CCC(N5CCCCC5)CC4)cc13)-c1cc3c(c(=O)n1C2)COC(=O)[C@]3(O)CC [IRINOTECAN HYDROCHLORIDE]	> 10	> 10	0.341	> 10	> 10	> 10	> 10	> 10
CCC(C)n1ncn(-c2ccc(N3CCN(c4ccc(OCC5COC(Cn6cncn6)(c6ccc(Cl)cc6Cl)O5)cc4)CC3)cc2)c1=O (centres undefined) [ITRACONAZOLE]	> 10	> 10	> 10	> 10	≤ 0.0781	> 10	> 10	0.156 (≈ 0.11 µg/mL)
CC(=O)N1CCN(c2ccc(OCC3COC(Cn4ccnc4)(c4ccc(Cl)cc4Cl)O3)cc2)CC1 (centres undefined) [KETOCONAZOLE]	> 10	> 10	> 10	> 10	0.156 (≈ 0.0831 µg/mL)	> 10	> 10	2.5 (≈ 1.33 µg/mL)
CCOC(=O)C1=C(C)NC(C)=C(C(=O)OCC)C1c1ccccc1/C=C/C(=O)OC(C)(C)C [LACIDIPINE]	> 10	> 10	> 10	> 10	> 10	> 10	> 10	> 10
CC(=O)NC[C@H]1CN(c2ccc(N3CCOCC3)c(F)c2)C(=O)O1 [LINEZOLID]	2.5 (≈ 0.843 µg/mL)	> 10	4.46	> 10	> 10	> 10	> 10	> 10
CN(CCCN1c2ccccc2CCc2ccccc21)CC(=O)c1ccc(Cl)cc1 [LOFEPRAMINE]	> 10	> 10	> 10	> 10	> 10	> 10	> 10	> 10
Clc1ccc(COC(Cn2ccnc2)c2ccc(Cl)cc2Cl)c(Cl)c1 (centres undefined) [MICONAZOLE NITRATE]	> 10	> 10	> 10	> 10	≤ 0.0781	> 10	> 10	0.625
CN(C)c1ccc(O)c2c1C[C@H]1C[C@H]3[C@H](N(C)C)C(O)=C(C(N)=O)C(=O)[C@@]3(O)C(O)=C1C2=O [MINOCYCLINE HYDROCHLORIDE]	0.312	2.5	0.0983	> 10	> 10	0.312	> 10	> 10
COc1c(N2C[C@@H]3CCCN[C@@H]3C2)c(F)cc2c(=O)c(C(=O)O)cn(C3CC3)c12 [MOXIFLOXACIN HYDROCHLORIDE]	0.156	≤ 0.0781	> 10	5	> 10	0.625	2.5	> 10
C/C(=C\C(=O)OCCCCCCCCC(=O)O)C[C@@H]1OC[C@H](C[C@@H]2O[C@H]2[C@@H](C)[C@H](C)O)[C@@H](O)[C@H]1O [MUPIROCIN]	0.312 (≈ 0.156 µg/mL)	> 10	> 10	> 10	10 (≈ 5.01 µg/mL)	> 10	> 10	> 10
CCOc1ccc2ccccc2c1C(=O)N[C@@H]1C(=O)N2[C@@H]1SC(C)(C)[C@@H]2C(=O)O [NAFCILLIN SODIUM]	1.25	> 10	> 10	> 10	> 10	> 10	> 10	> 10
CCn1cc(C(=O)O)c(=O)c2ccc(C)nc21 [NALIDIXIC ACID]	> 10	> 10	> 10	> 10	> 10	> 10	> 10	> 10
CC(=O)Oc1ccccc1C(=O)Nc1ncc([N+](=O)[O-])s1 [NITAZOXANIDE]	> 10	> 10	> 10	> 10	> 10	> 10	> 10	> 10
O=C1CN(/N=C/c2ccc([N+](=O)[O-])o2)C(=O)N1 [NITROFURANTOIN]	> 10	> 10	> 10	> 10	> 10	> 10	> 10	> 10
CCn1cc(C(=O)O)c(=O)c2cc(F)c(N3CCNCC3)cc21 [NORFLOXACIN]	5 (≈ 1.6 µg/mL)	0.625 (≈ 0.2 µg/mL)	> 10	10 (≈ 3.19 µg/mL)	> 10	> 10	5 (≈ 1.6 µg/mL)	> 10
CC1COc2c(N3CCN(C)CC3)c(F)cc3c(=O)c(C(=O)O)cn1c23 (centres undefined) [OFLOXACIN]	1.25 (≈ 0.452 µg/mL)	≤ 0.0781	> 10	5 (≈ 1.81 µg/mL)	> 10	1.25 (≈ 0.452 µg/mL)	5 (≈ 1.81 µg/mL)	> 10
COc1ccc2[nH]c([S+]([O-])Cc3ncc(C)c(OC)c3C)nc2c1 (centres undefined) [OMEPRAZOLE MAGNESIUM]	> 10	> 10	> 10	> 10	> 10	> 10	> 10	> 10
COc1cc(C)c(Cc2cnc(N)nc2N)cc1OC [ORMETOPRIM]	5 (≈ 1.37 µg/mL)	5 (≈ 1.37 µg/mL)	> 10	> 10	> 10	> 10	> 10	> 10
Clc1ccc(CO/N=C(\Cn2ccnc2)c2ccc(Cl)cc2Cl)c(Cl)c1 [OXICONAZOLE NITRATE]	> 10	> 10	> 10	> 10	≤ 0.0781	> 10	> 10	≤ 0.0781
C[C@H]1COc2c(C3(N)CC3)c(F)cc3c(=O)c(C(=O)O)cn1c23 [PAZUFLOXACIN]	0.625 (≈ 0.199 µg/mL)	≤ 0.0781	> 10	1.25 (≈ 0.398 µg/mL)	> 10	1.25 (≈ 0.398 µg/mL)	2.5 (≈ 0.796 µg/mL)	> 10
CCn1cc(C(=O)O)c(=O)c2cc(F)c(N3CCN(C)CC3)cc21 [PEFLOXACIN MESYLATE]	1.25	0.156	> 10	5	> 10	1.25	10	> 10
CCN1CCN(C(=O)N[C@@H](C(=O)N[C@@H]2C(=O)N3[C@@H]2SC(C)(C)[C@@H]3C(=O)O)c2ccccc2)C(=O)C1=O [PIPERACILLIN SODIUM]	> 10	10	> 10	> 10	> 10	> 10	10	> 10
O=C(O)C[C@H](O)C[C@H](O)/C=C/c1c(C2CC2)nc2ccccc2c1-c1ccc(F)cc1 [PITAVASTATIN CALCIUM]	> 10	> 10	> 10	> 10	2.5	> 10	> 10	10
COc1cc(NC(C)CCCN)c2ncccc2c1 (centres undefined) [PRIMAQUINE PHOSPHATE]	> 10	> 10	> 10	> 10	> 10	> 10	> 10	> 10
CCc1nc(N)nc(N)c1-c1ccc(Cl)cc1 [PYRIMETHAMINE]	5 (≈ 1.24 µg/mL)	> 10	> 10	> 10	> 10	> 10	> 10	> 10
